Values quoted from earlier work as cited in patent publication US11576377B2, “Antimicrobial mixtures of an essential oil derived bactericide and an essential oil derived fungicide which extend the shelf-life of perishable agricultural commodities” (priority 2013, dated 2023).

Legend:
cherry stem = details: Tsao and Zhou, 2000
peaches = details: Mari et al. 2008

Cc1ccc(C(C)C)c(O)c1 [thymol]
Phytotoxic effect on cherry stem (cherry stem): causes browning of cherry stem

C=CCN=C=S [allyl isothiocyanate]
Phytotoxic effect on peaches (peaches): causes discoloration of peaches
